Target: human galectin-1 (Gal-1) (Homo sapiens, UniProt P09382)
Experiment: ITC, single-site model
Type: binding
Details: 50 mM sodium phosphate, 150 mM NaCl, pH 7.4, 1 mM TCEP

Sequence of human galectin-1 (Gal-1) (P09382 2-135): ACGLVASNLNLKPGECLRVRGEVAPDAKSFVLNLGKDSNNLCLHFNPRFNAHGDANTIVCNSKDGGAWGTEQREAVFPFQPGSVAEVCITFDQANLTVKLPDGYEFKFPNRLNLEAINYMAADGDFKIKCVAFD

Kd | Compound
319 µM | CC(=O)N[C@H]1C(O)O[C@H](CO)[C@@H](O[C@@H]2O[C@H](CO)[C@H](O)[C@H](O)[C@H]2O[C@@H]2O[C@@H](C)[C@@H](O)[C@@H](O)[C@@H]2O)[C@@H]1O (some centres unmarked) [compound 3, H type‐II]
379 µM | CC(=O)N[C@H]1C(O)O[C@H](CO)[C@@H](O[C@@H]2O[C@H](CO)[C@H](O)[C@H](O[C@H]3O[C@H](CO)[C@H](O)[C@H](O)[C@H]3O)[C@H]2O[C@@H]2O[C@@H](C)[C@@H](O)[C@@H](O)[C@@H]2O)[C@@H]1O (some centres unmarked) [compound 4, B type‐II]

Reference: PMC7756784 (Chemistry (Weinheim an Der Bergstrasse, Germany), 2020)
